Measurements taken from publication PMC11823381, “Identification of novel inhibitors of dengue viral NS5 RNA-dependent RNA polymerase through molecular docking, biological activity evaluation and molecular dynamics simulations” (Journal of Enzyme Inhibition and Medicinal Chemistry, 2025).
Values joined by “and” are separate entries in the source; they are usually repeats but may differ in a detail not shown here. Equal entries are not always repeated. Where two headings read alike, the source gives them in different places.

Experiments:
[1] = Cytotoxicity (CC50) in the cell-based assay; settings: hamster, BHK-21 cells
Method: (§1) In this study, the DENV2 NGC strain (provided by Robert B. Tesh, University of Texas Medical Branch) and BHK-21 cells (Baby hamster kidney cells, ATCC CCL10) were used for cell-based antiviral evaluations. Viral stocks were prepared by infecting C6/36 cells (Aedes albopictus clone C6/36; ATCC CRL166), cultured in RPMI 1640 medium (Invitrogen, Burlington, ON, Canada) containing 2% foetal bovine serum (FBS) (Sigma-Aldrich, Shanghai, China) and 0.5% penicillin-streptomycin. The infected cultures were incubated at 28 °C with 5% CO2 for seven days until cytopathic effects (CPE) were detected. Supernatants were collected by centrifuging at 2,000 g for 5 min to remove debris, mixed with 20% FBS, and stored in aliquots at −80 °C. Viral titres were quantified using the Promega Viral ToxGlo assay (Fisher Scientific, Ottawa, ON, Canada) on BHK-21 cells, and the 50% tissue culture infective dose (TCID50) was determined following the manufacturer’s instructions. To test antiviral activity, BHK-21 cells were seeded in 96-well plates at 2,500 cells per well using Dulbecco’s modified Eagle’s medium (DMEM) with 10% FBS and 1% penicillin-streptomycin. After overnight incubation at 37 °C, cells were exposed to 100 TCID50 of DENV for 90 min. Following infection, the medium was replaced with DMEM supplemented with 2.5% FBS and different concentrations of the test compounds. Cultures were maintained at 37 °C with 5% CO2 for 3 days. Fresh Viral Tox reagent was prepared, and 100 μL was added to each well before incubating the plates for at least 10 min. Luminescence readings were taken using a 1450 MicroBeta TriLux scintillation counter (PerkinElmer). Data were analysed by plotting luminescence values against logarithmic compound concentrations, and nonlinear regression was carried out using GraphPad Prism 10.0 software.

[2] = system: DENV2 NGC strain; experiment: Cell-based antiviral assay (Viral ToxGlo, CPE) against DENV-NGC; parameters: species or system dengue virus (DENV2); settings: for IC50: mean ± SD of two individual experiments; for SI (selectivity index): ratio of CC50 to IC50
Method: as §1

[3] = BHK-21 cells, 100 TCID50 of DENV, 3 days, read-out: DENV-NGC-IC50
[4] = Dengue virus, DENV2, BHK-21, 72 h, BHK-21 cells, 100 TCID50 of DENV, 3 days, read-out: DENV-NGC-IC50
[5] = Dengue virus, DENV2, BHK-21, 72 h, read-out: DENV-NGC-IC50, BHK-21 cells, 100 TCID50 of DENV, 3 days

For N#Cc1ccc(C(=O)N2CCC[C@H]2c2nc(CCOCC3CC3)no2)cc1 [Compound D23], the CC50 at 3 days [1] was > 200 µM, the IC50 [2, 3] was > 200 µM and the IC50 [2, 4] was 123 µM.
In the case of O=C(O)[C@H](NC(=O)[C@@H]1CC=CC[C@H]1C(=O)c1ccccc1)c1ccccc1 [Compound D26], the IC50 [2, 4] is reported as > 200 µM.
For CN(c1ccccc1)c1nc(=O)n(CC(=O)Nc2ccc(Br)cc2)c2ccccc12 [Compound D21], the IC50 [2, 4] was > 200 µM.
For O=C(Cn1c(=O)sc2ccccc21)Nc1nnc(SCc2ccccc2)s1 [Compound D5], the CC50 at 3 days [1] was > 200 µM and the IC50 [2, 3] was 28.5 µM and > 66.7 µM.
In the case of C[C@@H](Sc1nnc2c3ccccc3nc(-c3ccccc3)n12)C(=O)NC[C@H]1CCCO1 [Compound D17], the CC50 at 3 days [1] is reported as 53 ± 10.5 µM, the IC50 [2, 4] is reported as 22.2 ± 7.25 µM and the “SI (selectivity index)” value [2] is reported as 2.38.
In the case of CCCC[C@@](CCC(=O)O)(C(=O)OCC)c1csc(Nc2ccc(C)cc2)n1 [Compound D3], the IC50 [2, 4] is reported as > 66.7 µM.
For O=C(CCSc1nc(-c2ccc3c(c2)OCO3)cc(C(F)(F)F)n1)NCCN1CCOCC1 [Compound D4], the IC50 [2, 4] was > 200 µM.
With O=C1C[C@@H](NCCc2c[nH]c3ccccc23)C(=O)N1c1ccc(Oc2ccccc2)cc1 [Compound D12] the CC50 at 3 days [1] was 163 ± 14.1 µM, the IC50 [2, 4] was 47.3 ± 11.8 µM and the “SI (selectivity index)” value [2] was 3.45.
With O=C(O)CCCNC(=O)Cn1nc2c(cc1=O)CCCCC2 [Compound D18] the IC50 [2, 4] was > 200 µM.
With Nc1ncnc2c([C@@H]3N[C@H](CO)[C@@H](O)[C@H]3O)c[nH]c12 [BCX4430, Galidesivir, reference compound] the CC50 at 3 days [1] was 100 ± 12.5 µM, the IC50 [2, 4] was 41.6 ± 2.95 µM and the “SI (selectivity index)” value [2] was 2.40.
In the case of CN(Cc1ccccc1)C(=O)c1snc2c(=O)n(Cc3ccccc3)c(=O)[nH]c12 [Compound D1], the CC50 at 3 days [1] is reported as 37.5 ± 2.03 µM, the IC50 [2, 4] is reported as 13.1 ± 1.17 µM and the “SI (selectivity index)” value [2] is reported as 2.87.
With O=C(Nc1ccc(F)cc1F)N1CCC[C@@H]1c1nc2cc(-c3ccccc3F)ccc2o1 [Compound D8] the CC50 at 3 days [1] was 99.2 ± 1.93 µM, the IC50 [2, 4] was 14.8 ± 7.76 µM and the “SI (selectivity index)” value [2] was 6.71.
In the case of CCOc1c(Nc2ccc(C#N)cc2)c(=O)c1=O [Compound D15], the IC50 [2, 4] is reported as > 200 µM.
In the case of O=C(COc1ccccc1)Nc1nnc(SCc2cc(=O)n3cc(Cl)ccc3n2)s1 [Compound D16], the IC50 [2, 4] is reported as > 200 µM.
With COc1cccc(S(=O)(=O)NC(=O)c2cc(-c3ccc(C#CCO)s3)c(OC)cc2OC)c1 [Compound 27, reference compound] the CC50 at 3 days [1] was 26.9 ± 3.02 µM, the IC50 [2, 4] was 19.7 ± 1.12 µM and the “SI (selectivity index)” value [2] was 1.37.
In the case of CC(=O)Nc1ccc(S(=O)(=O)N[C@]2(C(F)(F)F)NC(=O)N(c3ccc(Cl)cc3)C2=O)cc1 [Compound D9], the IC50 [2, 4] is reported as > 200 µM.
For O=C([C@@H]1C[C@H](Oc2ccccc2)CN1C(=O)CCc1nc2ccccc2s1)N1CCCC1 [Compound D24], the CC50 at 3 days [1] was > 200 µM and the IC50 [2, 5] was > 66.7 µM.
With O=C(Cn1c(=O)sc2ccccc21)Nc1nnc(SCC(=O)N2CCOCC2)s1 [Compound D7] the IC50 [2, 4] was > 200 µM.
In the case of NC(=O)C1CCN(C(=O)CCCSc2nc(-c3ccco3)cc(C(F)(F)F)n2)CC1 [Compound D6], the IC50 [2, 4] is reported as > 200 µM.
In the case of Cc1[nH]c2ccccc2c1C(=O)C(=O)NC[C@@H]1COc2ccccc2O1 [Compound D11], the CC50 at 3 days [1] is reported as 87.3 ± 2.75 µM and the IC50 [2, 5] is reported as > 66.7 µM.
With O=c1c2ccccc2[nH]c(=S)n1C[C@H]1CC[C@H](C(=O)NC[C@@H]2COc3ccccc3O2)CC1 [Compound D19] the IC50 [2, 4] was > 200 µM.
For NC(=O)COc1ccc([C@@H]2CC(=O)Nc3nc(SCc4ccc(Cl)cc4)[nH]c(=O)c32)cc1 [Compound D14], the CC50 at 3 days [1] was > 200 µM and the IC50 [2, 3] was 31.2 µM and > 200 µM.
In the case of Cc1ccc(NC(=O)[C@@H]2[C@H]3C(=O)N(C[C@@H]4CCCO4)[C@H](C(=O)NC4CCCCC4)[C@]34C=C[C@H]2O4)cc1 [Compound D10], the IC50 [2, 4] is reported as > 200 µM.
